For series [1], the system named is VERO, HFL-1, L929, NIH 3T3, CHO-K1 and HMV-II cell lines. Put plainly: Non-selective general cytotoxicity test. Format: cell-based. To be noted: all cell lines, 24 hours. The procedure:
In this experiment, the cell lines derived from different species, VERO (African green monkey kidney cell line), HFL-1 (human embryonic lung cell line), L929 (mouse fibroblast cell line), NIH 3T3 (mouse embryonic fibroblast cell line), CHO-K1 (Chinese hamster ovary cell line) and HMV-II (human malignant melanoma cell line), were used.
Particularly, VERO, HFL-1, L929 and NIH 3T3 cell lines were cultured in DMEM, CHO-K1 was cultured in RPMI1640 medium, and HMV-II was cultured in DME/F-12 medium. 10% FBS (Fetal Bovine Serum) and 100 μg/mL of antibiotics were added to each medium. The cells were acclimatized and cultured in a humidified 37° C. 5% CO2 incubator, washed with PBS (phosphate buffer solution) at the time of growth that occupies 70-80% of the culture dish every 2-3 days, and then subcultured by treating with Trypsin-EDTA (Gibco, USA).
The cells used in this Experimental Example were aliquoted into a 96-well culture plate at the density of 15,000-25,000 cells/well, and then acclimatized and cultured in a humidified 37° C. […] The cell viability was measured according to the standard method using a Cyto XTM cell viability assay kit ([…]). […] 5% CO2 incubator, followed by measuring the absorbance at 450 nm. The survival rate was measured by calculating the ratio of the absorbance changed compared to the absorbance measured in the group treated with DMSO alone.

The target in series [2] is T1, hERG channel protein (Homo sapiens, UniProt Q12809).
T1 construct: expressed in transfected cells; host or cells: HEK-293
T1 sequence (Q12809 whole entry): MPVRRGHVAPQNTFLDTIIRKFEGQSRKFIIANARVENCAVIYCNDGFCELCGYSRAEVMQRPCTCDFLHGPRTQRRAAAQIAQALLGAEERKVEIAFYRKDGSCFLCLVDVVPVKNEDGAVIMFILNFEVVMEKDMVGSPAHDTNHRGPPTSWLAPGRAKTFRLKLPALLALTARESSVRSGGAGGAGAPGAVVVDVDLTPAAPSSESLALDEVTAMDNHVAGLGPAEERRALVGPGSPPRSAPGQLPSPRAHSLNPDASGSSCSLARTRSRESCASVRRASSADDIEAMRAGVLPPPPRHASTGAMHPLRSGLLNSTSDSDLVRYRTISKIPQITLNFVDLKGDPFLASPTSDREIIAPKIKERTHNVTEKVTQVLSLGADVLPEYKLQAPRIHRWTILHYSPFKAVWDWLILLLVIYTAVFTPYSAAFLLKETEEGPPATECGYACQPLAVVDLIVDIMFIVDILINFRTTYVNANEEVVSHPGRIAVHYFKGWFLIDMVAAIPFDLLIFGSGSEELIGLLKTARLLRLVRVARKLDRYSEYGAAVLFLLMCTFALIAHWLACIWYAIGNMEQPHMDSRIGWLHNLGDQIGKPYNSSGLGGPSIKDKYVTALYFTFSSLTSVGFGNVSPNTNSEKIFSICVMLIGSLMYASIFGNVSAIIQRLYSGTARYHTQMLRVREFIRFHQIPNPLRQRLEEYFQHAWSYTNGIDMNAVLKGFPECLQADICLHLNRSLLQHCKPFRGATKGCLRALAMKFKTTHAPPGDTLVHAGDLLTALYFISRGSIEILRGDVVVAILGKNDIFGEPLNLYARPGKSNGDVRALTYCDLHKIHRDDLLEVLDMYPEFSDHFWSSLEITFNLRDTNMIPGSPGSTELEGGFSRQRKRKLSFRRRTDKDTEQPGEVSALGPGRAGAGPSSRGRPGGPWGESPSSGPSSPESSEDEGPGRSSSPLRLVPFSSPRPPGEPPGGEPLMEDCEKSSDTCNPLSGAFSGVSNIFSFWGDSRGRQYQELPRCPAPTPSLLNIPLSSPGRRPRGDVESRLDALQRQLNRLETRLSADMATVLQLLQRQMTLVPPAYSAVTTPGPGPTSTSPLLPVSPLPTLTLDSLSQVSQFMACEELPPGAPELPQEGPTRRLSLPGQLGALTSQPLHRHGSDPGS
Kind of series: hERG patch clamp test in HEK-293 cells overexpressing hERG. Conditions: at 10 μM. It counts as cell-based. On the procedure: In order to evaluate the possibility of inducing cardiotoxicity of the compound of Example 1 of the present invention in vivo, the inhibitory potential to the hERG (human ether-a-go-go related gene) K^+ channel protein, known as a main cause of arrhythmias, was tested.
Next, in order to evaluate the activity of the hERG channel protein using an electrophysiological method, a patch clamp test was performed. The activity of the hERG channel protein was measured using the HEK-293 cell line overexpressing the hERG channel protein. The cells were acclimatized and cultured in a humidified 37° C. 5% CO2 incubator, washed with PBS (phosphate buffer solution) at the time of growth that occupies 70-80% of the culture dish every 2-3 days, and then subcultured by treating with Trypsin-EDTA. For the test, 2×10^5 cells were aliquoted in a 60 mm cell culture dish, and then cultured in a humidified 5% CO2 incubator for 48 hours. The cultured cells were detached by treating Trypsin-EDTA (Gibco, USA), and the flow of K^+ by the hERG channel protein was measured by applying an automated patch clamp equipment (PatchXpress, Molecular Device).
In general terms: hERG is a cardiac potassium channel; its block is linked to QT prolongation.

Series [3] has as its system artificial corneal tissue. Put plainly: Ocular toxicity test on artificial cornea (MTT). It counts as cell-based. To be noted: up to 50 μM, the maximum concentration. The procedure:
In order to evaluate the ocular toxicity that may be induced upon ocular exposure of the compound of Example 1 of the present invention, the following experiment was performed using the cultured artificial cornea.
The artificial corneal tissue cultured in agarose medium was transferred to a 12-well cell culture plate, to which culture medium was added, followed by culture in a humidified 37° C. 5% CO2 incubator for one day. The medium on the artificial cornea culture surface was eliminated, and 30 μl of the compound of Example 1 of the present invention diluted with PBS was evenly applied to the cornea surface, followed by incubation at room temperature for 30 minutes. The cell surface was washed twice with 10 ml of PBS, and a fresh culture medium was added, followed by incubation in a humidified 37° C. 5% CO2 incubator for 30 minutes. In order to measure the viability of the cornea, the artificial cornea was transferred to a 12-well plate containing 2 ml of MTT solution (1 mg/ml), followed by culture for 3 hours. The stained artificial corneal tissue was taken and transferred to a tube containing 1.5 ml of isopropanol, and then incubated with shaking to decolorize. The solution was centrifuged at 13,000 rpm for 5 minutes, 100 μl of the supernatant was transferred to each well of a 96-well plate, and absorbance was measured at 570 nm.

Series [4] deals with NO production. Put plainly: NO production in LPS-treated Raw 264.7 macrophages (Griess reagent). It counts as cell-based, mouse. On the procedure:
In order to confirm the effect of the compound of Example 1 of the present invention on NO production in Raw 264.7 mouse macrophages in which inflammatory response was induced by LPS, an experiment was performed as follows.
(§1) Raw 264.7 mouse macrophages were aliquoted in a 96-well plate at the density of 1×10^5 cells/well and stabilized in a 37° C., 5% CO2 incubator for 24 hours. The Raw 264.7 cells were treated with the compound of Example 1 by concentration. After 1 hour, the cells were treated with 1 ug/ml of LPS and cultured for 24 hours. For the measurement of NO production, 40 mg/ml of Griess reagent was prepared and it was mixed with the culture supernatant at the same ratio. The mixture was reacted at room temperature for 15 minutes, and absorbance was measured at 540 nm. Based on the results obtained therefrom, the cell viability and NO production rate were expressed as percentages in terms of LPS.

Series [5] relates to Raw 264.7 mouse macrophages. Kind of series: Cell viability of LPS-treated Raw 264.7 macrophages. Format: cell-based. The procedure:
as §1

Each structure is given as a SMILES string.

For the compound `[O-][S+](c1ccc(F)cc1)c1nccc2ccccc12` (centres unmarked) [Example 1, 1-((4-Fluorophenyl)Sulfinyl)Isoquinoline], the cytotoxicity entry in series [1] (maximum test concentration of 100 μM) is recorded as “less than 50%”; in series [5] (LPS-treated Raw 264.7, 0.1, 0.5, 1, 10 and 100 μM (FIG. 3)), “no significant cytotoxicity”. Further, the “toxicity (cell viability)” value in series [1] (up to 10 μM) is on record as “no significant toxicity”. In addition, the “inhibition of the activity of the hERG channel protein” value in series [2] is “about 10%”. For the same compound, in series [3], the “survival rate of artificial cornea” value is “no significant decrease of the survival rate”. Also, the “NO production (% of control)” value in series [4] (1 ug/ml LPS, 24 hours, Raw 264.7 cells, test concentration not given) is listed as 40 % of control. In addition, in series [4] (LPS-treated Raw 264.7, 0.1, 0.5, 1, 10 and 100 μM, effect increased with concentration (FIG. 3)), the NO production entry is reported as “inhibited”. Further, the “Cell viability (% of control)” value in series [5] (LPS-treated Raw 264.7 cells, 24 hours, test concentration not given) is reported as 90 % of control.

(Values after patent US11878013B2, “Isoquinoline derivative, preparing method thereof, and pharmaceutical composition for preventing or treating autophagy related diseases containing the same as an active ingredient” (Korea Research Institute of Chemical Technology, priority 2021, dated 2024).)
